pIC50: −log10 of the molar value. Where a name gives a salt, the structure may show the parent alone.
Target: T1, human NHE-1 (Homo sapiens, UniProt P19634)
T1 construct: expressed in transfected cells; host or cells: LAP-1 cells (parental line without endogenous NHE activity, from Prof. Pouysségur, Nice), G418-selected transfectants
Experiment: FLIPR assay for NHE-1 inhibition by recovery of pHi in transfected cell lines
Format: cell-based
Settings: transfected LAP-1 cell line expressing human NHE-1, BCECF fluorescence
Method: The NHE-1 inhibition IC50 [nM] was determined as follows: FLIPR Assay for Determining NHE-1 Inhibitors by Measurement of the Recovery in pHi in Transfected Cell Lines Which Express Human NHE-1 The assay is carried out in an FLIPR (fluorometric imaging plate reader) with black-walled 96-well microtiter plates with clear bases. […] [The growth medium for the transfected cells (Iscove +10% fetal calf serum) additionally contains G418 as selection antibiotic in order to ensure the presence of the transfected sequences.] The actual assay starts with the removal of the growth medium and addition of 100 μl of loading buffer per well (5 μM BCECF-AM [2′, 7′-bis(carboxyethyl)-5-(and-6)-carboxyfluorescein, acetoxymethyl ester] in 20 mM NH4Cl, 115 mM choline chloride, 1 mM MgCl2, 1 mM CaCl2, 5 mM KCl, 20 mM HEPES, 5 mM glucose; pH 7.4 [adjusted with KOH]). The cells are then incubated at 37° C. for 20 minutes. This incubation leads to loading of the cells with the fluorescent dye whose fluorescence intensity depends on pHi, and with NH4Cl which makes the cells slightly alkaline. [The nonfluorescent dye precursor BCECF-AM is, as ester, membrane-permeable. The actual dye BCECF is not membrane-permeable but is liberated inside cells by esterases.] After this incubation for 20 minutes, the loading buffer which contains NH4Cl and free BCECF-AM is removed by washing three times in a cell washer (Tecan Columbus) with in each case 400 μl of washing buffer (133.8 mM choline chloride, 4.7 mM KCl, 1.25 mM MgCl2, 1.25 mM CaCl2, 0.97 mM K2HPO4, 0.23 mM KH2PO4, 5 mM HEPES, 5 mM glucose; pH 7.4 [adjusted with KOH]). The residual volume remaining in the wells is 90 μl (50-125 μl possible). This washing step removes the free BCECF-AM and results, as a consequence of the removal of the external NH4^+ ions, in intracellular acidification (˜pHi 6.3-6.4). Since the equilibrium of intracellular NH4^+ with NH3 and H^+ is disturbed by the removal of the extracellular NH4^+ and by the subsequent instantaneous passage of the NH3 through the cell membrane, the washing process results in H^+ remaining inside the cells, which is the cause of the intracellular acidification. This may eventually lead to cell death if it persists long enough. It is important at this point that the washing buffer is sodium-free (<1 mM) because extracellular sodium ions would lead to an instantaneous recovery of the pHi through the activity of the cloned NHE isoforms. It is likewise important for all the buffers used (loading buffer, washing buffer, recovery buffer) not to contain any HCO3^− ions, because the presence of bicarbonate would lead to activation of interfering bicarbonate-dependent pHi regulatory systems present in the parental LAP-1 cell line. The microtiter plates with the acidified cells are then (up to 20 minutes after the acidification) transferred to the FLIPR. In the FLIPR, the intracellular fluorescent dye is excited by light with a wavelength of 488 nm generated by an argon laser, and the measured parameters (laser power, illumination time and aperture of the CCD camera incorporated in the FLIPR) are chosen so that the average fluorescence signal per well is between 30 000 and 35 000 relative fluorescence units. The actual measurement in the FLIPR starts with a photograph being taken by the CCD camera every two seconds under software control. After ten seconds, the recovery of the intracellular pH is initiated by adding 90 μl of recovery buffer (133.8 mM NaCl, 4.7 mM KCl, 1.25 mM MgCl2, 1.25 mM CaCl2, 0.97 mM K2HPO4, 0.23 mM KH2PO4, 10 mM HEPES, 5 mM glucose; pH 7.4 [adjusted with NaOH]) by means of the 96-well pipettor incorporated in the FLIPR. Positive control wells (100% NHE activity) are those to which pure recovery buffer is added, while negative controls (0% NHE activity) receive washing buffer. Recovery buffer with twice the concentration of test substance is added to all the other wells. Measurement in the FLIPR terminates after 60 measurements (two minutes). […]

T1 sequence (P19634 whole entry): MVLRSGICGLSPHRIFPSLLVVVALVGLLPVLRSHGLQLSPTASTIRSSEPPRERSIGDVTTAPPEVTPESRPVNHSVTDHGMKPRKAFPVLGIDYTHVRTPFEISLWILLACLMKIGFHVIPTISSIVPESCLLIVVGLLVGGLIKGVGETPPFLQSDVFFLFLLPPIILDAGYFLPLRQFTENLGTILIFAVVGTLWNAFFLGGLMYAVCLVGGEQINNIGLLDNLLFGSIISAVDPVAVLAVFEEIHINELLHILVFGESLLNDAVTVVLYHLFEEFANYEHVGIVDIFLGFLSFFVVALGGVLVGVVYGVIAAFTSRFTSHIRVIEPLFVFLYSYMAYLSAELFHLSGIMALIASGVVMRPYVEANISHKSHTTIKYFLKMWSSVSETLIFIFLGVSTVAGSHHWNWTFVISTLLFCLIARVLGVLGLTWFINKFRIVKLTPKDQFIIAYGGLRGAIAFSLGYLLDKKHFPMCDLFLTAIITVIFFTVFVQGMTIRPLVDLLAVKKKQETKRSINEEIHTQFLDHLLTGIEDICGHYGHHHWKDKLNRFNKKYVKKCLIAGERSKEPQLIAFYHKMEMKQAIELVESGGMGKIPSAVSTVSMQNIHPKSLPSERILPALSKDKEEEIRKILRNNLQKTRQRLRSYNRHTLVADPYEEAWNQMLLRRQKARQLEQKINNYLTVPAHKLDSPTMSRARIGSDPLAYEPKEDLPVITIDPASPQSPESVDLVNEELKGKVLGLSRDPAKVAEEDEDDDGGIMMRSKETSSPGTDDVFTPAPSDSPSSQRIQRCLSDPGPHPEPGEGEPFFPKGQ

Compound	pIC50
Cc1cc2c(cc1C(=O)NC(=N)N)S(=O)(=O)Cc1ccc(Cl)cc1-2 [Example 7, N-(3-Chloro-6-methyl-9,9-dioxo-9,10-dihydro-9-thiaphenanthrene-7-carbonyl)guanidinium Formate]	7.93
Cc1cc2c(cc1C(=O)NC(=N)N)S(=O)(=O)Cc1c(Cl)cccc1-2 [Example 9, N-(1-Chloro-6-methyl-9,9-dioxo-9,10-dihydro-9-thiaphenanthrene-7-carbonyl)guanidinium Formate]	7.86
Cc1ccc2c(c1)CS(=O)(=O)c1cc(C(=O)NC(=N)N)c(C)cc1-2 [Example 11, N-(2,6-Dimethyl-9,9-dioxo-9,10-dihydro-9-thiaphenanthrene-7-carbonyl)-guanidinium Formate]	7.71
Cc1cc2c(cc1C(=O)NC(=N)N)S(=O)(=O)Cc1cccc(C)c1-2 [Example 10, N-(4,6-Dimethyl-9,9-dioxo-9,10-dihydro-9-thiaphenanthrene-7-carbonyl)-guanidinium Formate]	7.17
Cc1ccc2c(c1)-c1cc(C)c(C(=O)NC(=N)N)cc1S(=O)(=O)C2 [Example 3, N-(3,6-Dimethyl-9,9-dioxo-9,10-dihydro-9-thiaphenanthrene-7-carbonyl)-guanidinium Formate]	8.07
Cc1cc2c(cc1C(=O)NC(=N)N)S(=O)(=O)Cc1ccc(F)cc1-2 [Example 5, N-(3-Fluoro-6-methyl-9,9-dioxo-9,10-dihydro-9-thiaphenanthrene-7-carbonyl)guanidinium Formate]	7.81
Cc1cc2c(cc1C(=O)NC(=N)N)S(=O)(=O)Cc1ccccc1-2 [Example 1, N-(6-Methyl-9,9-dioxo-9,10-dihydro-9-thiaphenanthrene-7-carbonyl)guanidinium Formate]	7.81
Cc1cc2c(cc1C(=O)NC(=N)N)S(=O)(=O)Cc1ccc3ccccc3c1-2 [Example 2, N-(2-Methyl-5,5-dioxo-5,6-dihydro-5-thiabenzo[c]phenanthrene-3-carbonyl)guanidinium Formate]	7.62
Cc1cc2c(cc1C(=O)NC(=N)N)S(=O)(=O)Cc1cc(Cl)ccc1-2 [Example 4, N-(2-Chloro-6-methyl-9,9-dioxo-9,10-dihydro-9-thiaphenanthrene-7-carbonyl)guanidinium Formate]	7.97
Cc1cc2c(cc1C(=O)NC(=N)N)S(=O)(=O)Cc1c(F)cccc1-2 [Example 6, N-(1-Fluoro-6-methyl-9,9-dioxo-9,10-dihydro-9-thiaphenanthrene-7-carbonyl)guanidinium Formate]	7.78
COc1ccc2c(c1)CS(=O)(=O)c1cc(C(=O)NC(=N)N)c(C)cc1-2 [Example 8, N-(2-Methoxy-6-methyl-9,9-dioxo-9,10-dihydro-9-thiaphenanthrene-7-carbonyl)guanidinium Formate]	7.99

Source: patent publication US6730697B2, “Dihydrothiaphenanthrenecarbonylguanidines: composition, process of making, and use as medicament or diagnostic aid” (Aventis Pharma Deutschland GmbH, priority 2002, dated 2004)
